Test results: patent US6645977B1 (priority 1997, dated 2003)
Several values for one entry are separate records, joined by “and”; a condition that tells them apart may be missing. Identical values can stand only once. Counter-ions that a name gives are not always drawn. Like-named read-outs stand apart in the source and are kept apart here.

Legend:
[1] = molecular target: nAChR labelled by 3H-α-bungarotoxin (α7 subunits) (Rattus norvegicus, UniProt Q05941); assay: biochemical; assay type: binding
Chain of nAChR labelled by 3H-α-bungarotoxin (α7 subunits) (Q05941 23-502): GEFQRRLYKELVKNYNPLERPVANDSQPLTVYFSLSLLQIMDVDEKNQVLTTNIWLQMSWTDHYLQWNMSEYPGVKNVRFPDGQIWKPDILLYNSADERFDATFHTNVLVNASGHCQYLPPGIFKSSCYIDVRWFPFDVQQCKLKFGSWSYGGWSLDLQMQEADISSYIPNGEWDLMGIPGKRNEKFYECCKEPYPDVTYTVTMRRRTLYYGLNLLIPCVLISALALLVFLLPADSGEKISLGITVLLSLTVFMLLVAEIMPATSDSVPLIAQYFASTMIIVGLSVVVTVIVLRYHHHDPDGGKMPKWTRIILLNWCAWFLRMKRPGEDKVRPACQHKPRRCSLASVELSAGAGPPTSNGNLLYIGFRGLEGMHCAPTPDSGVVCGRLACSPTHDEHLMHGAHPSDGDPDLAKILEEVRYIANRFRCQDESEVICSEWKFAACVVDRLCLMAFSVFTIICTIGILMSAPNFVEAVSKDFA

[2] = molecular target: nAChRs comprised of α4 and β2 subunits (labelled by 3H-cytisine) (Rattus norvegicus, UniProt P09483+P12390); assay: In vitro inhibition of 3H-cytisine binding
Chain of nAChRs comprised of α4 and β2 subunits (labelled by 3H-cytisine) (P09483 31-630): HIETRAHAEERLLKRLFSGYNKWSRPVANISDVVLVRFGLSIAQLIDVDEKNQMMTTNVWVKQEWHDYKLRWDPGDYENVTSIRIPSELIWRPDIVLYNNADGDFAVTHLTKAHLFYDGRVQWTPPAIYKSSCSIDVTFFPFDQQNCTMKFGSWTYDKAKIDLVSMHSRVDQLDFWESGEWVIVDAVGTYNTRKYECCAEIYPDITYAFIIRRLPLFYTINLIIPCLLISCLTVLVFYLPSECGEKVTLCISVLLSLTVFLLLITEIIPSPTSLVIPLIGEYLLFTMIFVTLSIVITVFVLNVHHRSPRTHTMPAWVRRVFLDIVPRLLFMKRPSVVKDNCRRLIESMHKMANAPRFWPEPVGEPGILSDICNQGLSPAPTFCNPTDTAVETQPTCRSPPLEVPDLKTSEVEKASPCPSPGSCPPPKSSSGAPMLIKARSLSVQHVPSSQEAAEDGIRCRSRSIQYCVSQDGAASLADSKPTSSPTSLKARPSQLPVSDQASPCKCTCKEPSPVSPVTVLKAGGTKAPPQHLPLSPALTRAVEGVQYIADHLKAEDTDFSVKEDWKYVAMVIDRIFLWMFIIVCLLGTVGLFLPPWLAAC
Chain of nAChRs comprised of α4 and β2 subunits (labelled by 3H-cytisine) (P12390 25-500): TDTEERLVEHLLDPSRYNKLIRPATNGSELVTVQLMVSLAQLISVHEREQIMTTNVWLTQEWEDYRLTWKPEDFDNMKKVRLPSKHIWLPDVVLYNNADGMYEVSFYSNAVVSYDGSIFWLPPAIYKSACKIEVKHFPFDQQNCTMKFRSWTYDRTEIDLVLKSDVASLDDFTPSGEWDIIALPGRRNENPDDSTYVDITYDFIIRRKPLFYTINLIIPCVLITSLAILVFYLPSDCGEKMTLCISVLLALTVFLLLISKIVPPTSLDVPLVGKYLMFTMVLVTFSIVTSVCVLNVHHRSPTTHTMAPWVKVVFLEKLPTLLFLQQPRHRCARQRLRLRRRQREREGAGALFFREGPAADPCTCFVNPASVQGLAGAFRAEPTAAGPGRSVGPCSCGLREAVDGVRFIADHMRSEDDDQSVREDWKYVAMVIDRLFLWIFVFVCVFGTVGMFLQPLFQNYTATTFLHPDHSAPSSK
Experimental: In vitro inhibition of ^3H-cytisine binding
The predominant subtype with high affinity for nicotine is comprised of α4 and β2 subunits. nAChRs of the latter type can selectively be labelled by the nicotine modulator ^3H-cytisine.
Tissue Preparation: Preparations are performed at 0-4° C. unless otherwise indicated. […] The homogenate is centrifuged at 27,000×g for 10 min. The supernatant is discarded and the pellet is resuspended in fresh buffer and centrifuged a second time. The final pellet is resuspended in fresh buffer (35 ml per g of original tissue) and used for binding assays.
Assay: Aliquots of 500 μl homogenate are added to 25 μl of test solution and 25 μl of ^3H-cytisine (1 nM, final concentration), mixed and incubated for 90 min at 2° C. Non-specific binding is determined using (−)-nicotine (100 μM, final concentration). After incubation the samples are added 5 ml of ice-cold buffer and poured directly onto Whatman GF/C glass fibre filters under suction and immediately washed with 2×5 ml ice-cold buffer. The amount of radioactivity on the filters is determined by conventional liquid scintillation counting. Specific binding is total binding minus non-specific binding.

[3] = relative to morphine; cited from earlier work
[4] = read-out: 3H-α-bungarotoxin IC50
[5] = 3H-cytisine IC50, rat cerebral cortex homogenate, 1 nM 3H-cytisine, 90 min at 2° C.
[6] = rat cerebral cortex homogenate, 1 nM 3H-cytisine, 90 min at 2° C., read-out: 3H-cytisine IC50

Q: For `CN1C2C=C(c3ccc[se]3)CC1CC2` (racemic), which melting point is on record?
A: 176.8 to 178.3 °C

Q: With `CN1C2C=C(c3cc4ccccc4o3)CC1CC2.O=C(O)/C=C/C(=O)O` (racemic) as the molecule, how does the melting point read?
A: 188.3 to 190.9 °C and 188.5 to 191.2 °C

Q: Which melting point does the source give for `CN1C2C=C(c3cccs3)CC1CC2.O=C(O)/C=C/C(=O)O` (racemic) here?
A: 141.5 to 143.5 °C

Q: For `CC(=O)C1=CC2CCC(C1)N2C.O=C(O)/C=C/C(=O)O` (racemic), which melting point is on record?
A: 148.5 to 150 °C

Q: For `CN1C2C=C(c3csc4ccccc34)CC1CC2.O=C(O)/C=C/C(=O)O` (racemic), which melting point is on record?
A: 146.6 to 149.5 °C

Q: For `CN1C2C=C(c3nc4ccccc4s3)CC1CC2.O=C(O)/C=C/C(=O)O` (racemic), which melting point is on record?
A: 195 to 196.8 °C

Q: For `CN1C2C=C(c3sccc3-c3ccoc3)CC1CC2.O=C(O)/C=C/C(=O)O` (racemic), which melting point is on record?
A: 187 to 189 °C

Q: Which melting point does the source give for `CN1C2C=C(c3nccs3)CC1CC2.O=C(O)/C=C/C(=O)O` (racemic) here?
A: 196.3 to 198.5 °C

Q: For `CN1C2C=C(c3ccsc3)CC1CC2.Cl` (racemic), which melting point is on record?
A: 117 to 118.5 °C

Q: Which melting point does the source give for `C1=C(c2cc3ccccc3o2)CC2CCC1N2` (racemic) (as salt: fumaric acid salt) [Compound 1e, (±)-3-(2-Benzofuryl)-8-H-8-azabicyclo[3.2.1]oct-2-ene Fumaric Acid Salt] here?
A: 201 to 204 °C

Q: With `CN1C2C=C(c3oc4ccccc4c3Br)CC1CC2` (racemic) (as salt: fumaric acid salt) [Compound 2f, (±)-3-[2-(3-Bromobenzofuryl)]-8-methyl-8-azabicyclo[3.2.1]oct-2-ene Fumaric Acid Salt] as the molecule, how does the melting point read?
A: 161.4 to 163.3 °C

Q: Which melting point does the source give for `CN1C2C=C(c3ccc(Cl)nc3)CC1CC2` (racemic) (as salt: fumaric acid salt) [Compound 5b, (±)-8-Methyl-3-[3-(6-chloro)pyridyl]-8-azabicyclo[3.2.1]oct-2-ene Fumaric Acid Salt] here?
A: 140 to 142 °C

Q: What does the source list for `C1=C(c2cccnc2)CC2CCC1N2Cc1ccccc1.O=C(O)/C=C/C(=O)O` (racemic) [Compound 1a, (±)-8-Benzyl-3-(3-pyridyl)-8-azabicyclo[3.2.1]oct-2-ene Fumaric Acid Salt]?
A: IC50 [1, 4]: 500 nM; melting point: 142 to 146 °C; IC50 [2, 5]: 23 nM

Q: What does the source list for `CN1C2C=C(c3cc4ccccc4o3)CC1CC2` (racemic) [Compound 1d, (±)-3-(2-Benzofuryl)-8-methyl-8-azabicyclo[3.2.1]oct-2-ene Fumaric Acid Salt]?
A: IC50 [1, 4]: 170 nM; IC50 [2, 5]: 120000 nM

Q: What does the source list for `C1=C(c2cc3ccccc3o2)CC2CCC1N2` (racemic) [Compound 1e, (±)-3-(2-Benzofuryl)-8-H-8-azabicyclo[3.2.1]oct-2-ene Fumaric Acid Salt]?
A: IC50 [1]: 800 nM; IC50 [2, 6]: > 10000 nM

Q: For `CN1C2C=C(c3sccc3Br)CC1CC2` (racemic) [Compound 1f, (±)-3-[2-(3-bromothienyl)]-8-methyl-8-azabicyclo[3.2.1]oct-2-ene Fumaric Acid Salt], which IC50 [1, 4] is on record?
A: 82 nM

Q: What about the IC50 [2, 6] of the same molecule?
A: 2200 nM

Q: For `CN1C2C=C(c3cccnc3)CC1CC2` (racemic) [Compound 2a, (±)-8-Methyl-3-(3-pyridyl)-8-azabicyclo[3.2.1]oct-2-ene Fumaric Acid Salt], which IC50 [1] is on record?
A: 550 nM

Q: What about the IC50 [2] of the same molecule?
A: 22 nM

Q: For `CN1C2C=C(c3cc4ccccc4s3)CC1CC2` (racemic) [Compound 2c, (±)-3-(2-Benzothienyl)-8-methyl-8-azabicyclo[3.2.1]oct-2ene], which IC50 [1, 4] is on record?
A: 100 nM

Q: And the melting point?
A: 81 to 83.6 °C

Q: And the IC50 [2, 5]?
A: 63800 nM

Q: Which IC50 [1, 4] does the source give for `CN1C2C=C(c3cc4ccccc4s3)CC1CC2.Cl` (racemic) [Compound 2d, (±)-3-(2-Benzothienyl)-8-methyl-8-azabicyclo[3.2.1]oct-2-ene Hydrochloride] here?
A: 67 nM

Q: And the melting point?
A: > 250 °C

Q: And the IC50 [2, 5]?
A: 110000 nM

Q: Which IC50 [1, 4] does the source give for `CN1C2C=C(c3oc4ccccc4c3Br)CC1CC2` (racemic) [Compound 2f, (±)-3-[2-(3-Bromobenzofuryl)]-8-methyl-8-azabicyclo[3.2.1]oct-2-ene Fumaric Acid Salt] here?
A: 1300 nM

Q: What about the IC50 [2, 6] of the same molecule?
A: 30000 nM

Q: With `CN1C2C=C(c3cnc4ccccc4c3)CC1CC2.O=C(O)/C=C/C(=O)O` (racemic) [Compound 3a, (±)-8-Methyl-3-(3-quinolinyl)-8-azabicyclo[3.2.1]oct-2-ene Fumaric Acid Salt] as the molecule, how does the IC50 [1, 4] read?
A: 1440 nM

Q: What about the melting point of the same molecule?
A: 140.8 to 143.8 °C

Q: What about the IC50 [2, 5] of the same molecule?
A: 1300 nM

Q: With `CC(=O)Nc1cccc(C2=CC3CCC(C2)N3C)c1.O=C(O)/C=C/C(=O)O` (racemic) [Compound 3c, (±)-3-(3-Acetamidophenyl)-8-methyl-8-azabicyclo[3.2.1]oct-2-ene Fumaric Acid Salt] as the molecule, how does the IC50 [1] read?
A: 640 nM

Q: What about the melting point of the same molecule?
A: 195.3 to 196.9 °C

Q: What about the IC50 [2, 6] of the same molecule?
A: 17000 nM

Q: What does the source list for `CCN1C2C=C(c3cc4ccccc4o3)CC1CC2.O=C(O)/C=C/C(=O)O` (racemic) [Compound 3e, (±)-3-(2-Benzofuryl)-8ethyl-8-azabicyclo[3.2.1]oct-2-ene Fumaric Acid Salt]?
A: IC50 [1, 4]: 510 nM; melting point: 197 to 203 °C; IC50 [2, 5]: > 10000 nM

Q: Which results are given for `CN1C2C=C(c3coc4ccccc34)CC1CC2.O=C(O)/C=C/C(=O)O` (racemic) [Compound 4a, (±)-3-(3-Benzofuryl)-8-methyl-8-azabicyclo[3.2.1]oct-2-ene Fumaric Acid Salt]?
A: IC50 [1, 4]: 3500 nM; melting point: 140.9 to 142.8 °C; IC50 [2, 5]: 2700 nM

Q: Which IC50 [1, 4] does the source give for `CN1C2C=C(c3cccc(N)c3)CC1CC2.O=C(O)/C=C/C(=O)O` (racemic) [Compound 4c, (±)-3-(3-Aminophenyl) 8-methyl-8-azabicyclo[3.2.1]oct-2-ene Fumaric Acid Salt] here?
A: 440 nM

Q: What about the melting point of the same molecule?
A: 195.3 to 196.9 °C

Q: And the IC50 [2]?
A: 30 nM

Q: With `CN1C2C=C(c3ccc(Cl)nc3)CC1CC2` (racemic) [Compound 5b, (±)-8-Methyl-3-[3-(6-chloro)pyridyl]-8-azabicyclo[3.2.1]oct-2-ene Fumaric Acid Salt] as the molecule, how does the IC50 [1] read?
A: 1900 nM

Q: What about the IC50 [2, 6] of the same molecule?
A: 20 nM

Q: With `Clc1ccc(C2CC3CCC2N3)cn1` (stereo not shown) [Epibatidine] as the molecule, how does the approximate analgesic potency [3] read?
A: ~500 times that of morphine
